The source of these data is patent US11634425B2, “Pharmaceutical compounds” (priority 2019, dated 2023).

Molecules are shown by their SMILES.

In one data set the test system is RSV A2. In words: RSV plaque reduction assay. In kind it is cell-based, respiratory syncytial virus (RSV). To be noted: human respiratory syncytial virus, HepG2, Hep-G2 cells, mean of at least two experiments. How it is done: (§1) Compounds were subjected to RSV plaque reduction assays according to the following protocol. Plaque EC50 and cell toxicity CC50 values are a mean of at least two experiments and figures are rounded to whole units.
Hep-G2 cells (ECACC, 85011430) were passaged in flasks and seeded in 24-well plates in DMEM containing antibiotics and supplemented with 10% FBS. During inoculation and subsequent incubation, cells were cultured in DMEM containing 2% FBS. 100 plaque forming unit/well of RSV (RSV A2 ECACC, 0709161v) was mixed with eight serial dilutions of compound. Subsequently, 100 μL of the virus/compound mixtures was added to confluent Hep-G2 cell monolayers. The cells and virus/compound mixtures were incubated at 37° C. in a humidified 5% CO2 incubator for 2 h prior to removal of the inoculum and addition of 1 mL of overlay (DMEM containing 2% FBS and 0.8% CMC) containing compound dilutions. The cells and were incubated at 37° C. in a humidified 5% CO2 incubator for 2 days.
Cells were washed with PBS before adding 75/25% […] EtOH/MeOH, for 3 min. Fixative was removed and plates were washed with PBS. A pre-titrated amount of the primary antibody was added in 200 μL PBS/2% milk powder, and plates incubated for 90 min at 37° C. The plates were washed 3 times with PBS/0.05% Tween20 before addition of rabbit anti-goat horse radish peroxidase in 200 μL PBS/2% milk powder, and incubated for 1 h at 37° C. Following three wash steps with PBS/0.05% Tween20, 200 μL ready-to-use TrueBlue was added and plates were incubated at rt for 10-15 min before washing with water. After removal of water, plates were air-dried in the dark.
(§2) Plates were scanned and analysed using the Immunospot S6 Macro analyser, which is equipped with BioSpot analysis software for counting immunostained plaques (virospots). Plaque counts were used to calculate % c infection relative to the mean of the plaque count in the virus control wells for RSV. The EC50 value was calculated as 50% reduction in signal, respectively, by interpolation of inhibition curves fitted with a 4-parameter nonlinear regression with a variable slope in Dotmatics. Plaque EC50 and cell toxicity CC50 values are a mean of at least two experiments and figures are rounded to whole units.

The nature of another data set: Cell cytotoxicity (CC50). In kind it is cell-based. To be noted: human; mean of at least two experiments.
Excerpt: as §1, §2

For the molecule `Cc1cnc2c(C(=O)N[C@H]3N=C(c4ccccc4)c4ccccc4NC3=O)c(-c3ccccc3F)nn2c1` [Example 33, 2-(2-Fluorophenyl)-6-methyl-N-[(3S)-2-oxo-5-phenyl-1,3-dihydro-1,4-benzodiazepin-3-yl]pyrazolo[1,5-a]pyrimidine-3-carboxamide], a half-maximal response in the data set with RSV A2 (EC50) required 29 nM. In addition, the CC50 in the data set “Cell cytotoxicity (CC50)” was greater than 25000 nM.

In the data set with RSV A2, `Cc1ccc(F)c(-c2nn3cccnc3c2C(=O)N[C@H]2N=C(c3ccccc3)c3cccc(F)c3NC2=O)c1` [Example 26, 2-(2-Fluoro-5-methylphenyl)-N-[(3S)-9-fluoro-2-oxo-5-phenyl-1,3-dihydro-1,4-benzodiazepin-3-yl]pyrazolo[1,5-a]pyrimidine-3-carboxamide] showed an EC50 of 53 nM. In “Cell cytotoxicity (CC50)”, this molecule displayed a CC50 of 8770 nM.

As for `COc1ccc2nc(-c3ccc(C)cn3)c(C(=O)N[C@H]3N=C(c4ccccc4)c4cccc(F)c4NC3=O)n2n1` [Example 120, N-[(3S)-9-fluoro-2-oxo-5-phenyl-1,3-dihydro-1,4-benzodiazepin-3-yl]-6-methoxy-2-(6-methyipyridin-3-yl)imidazo[1,2-b]pyridazine-3-carboxamide], the EC50 with RSV A2 was found to be 101 nM. Besides, in the data set “Cell cytotoxicity (CC50)”, the CC50 is greater than 25000 nM.

In the data set on RSV A2, `Cc1ccn2nc(-c3ccc(F)cc3F)c(C(=O)N[C@H]3N=C(c4ccccc4)c4ccccc4NC3=O)c2n1` [Example 35, 2-(2,4-Difluorophenyl)-5-methyl-N-[(3S)-2-oxo-5-phenyl-1,3-dihydro-1,4-benzodiazepin-3-yl]pyrazolo[1,5-a]pyrimidine-3-carboxamide] came in with an EC50 of 29 nM. In the data set “Cell cytotoxicity (CC50)”, this molecule displayed a CC50 greater than 25000 nM.

As for `Cc1cc(-c2nc3ccc(C)nn3c2C(=O)N[C@H]2N=C(c3ccccc3)c3ccccc3NC2=O)ccn1` [Example 97, 6-Methyl-2-(2-methylpyridin-4-yl)-N-[(3S)-2-oxo-5-phenyl-1,3-dihydro-1,4-benzodiazepin-3-yl]imidazo[1,2-b]pyridazine-3-carboxamide], the EC50 in the data set with RSV A2 was 49 nM. In addition, the CC50 in the data set “Cell cytotoxicity (CC50)” was greater than 25000 nM.

In the data set with RSV A2, `CN1C[C@H]2C[C@@H]1CN2c1ccn2nc(-c3ccccc3F)c(C(=O)N[C@H]3N=C(c4ccccc4)c4cccc(F)c4NC3=O)c2n1` [Example 84, N-[(3S)-9-fluoro-2-oxo-5-phenyl-1,3-dihydro-1,4-benzodiazepin-3-yl]-2-(2-fluorophenyl)[(1R,4R)-5-methyl-2,5-diazabicyclo[2.2.1]heptan-2-yl]pyrazolo[1,5-a]pyrimidine-3-carboxamide] yielded a concentration for a half-maximal effect (EC50) of 95 nM. The molecule also showed a CC50 in “Cell cytotoxicity (CC50)” of 16300 nM.

For the molecule `O=C(N[C@H]1N=C(c2ccccc2)c2cccc(F)c2NC1=O)c1c(-c2ccccc2)nc2ccc(N3C[C@H]4C[C@@H]3CO4)nn12` [Example 82, N-[(3S)-9-fluoro-2-oxo-5-phenyl-1,3-dihydro-1,4-benzodiazepin-3-yl]-6-[(1R,4R)-2-oxa-5-azabicyclo[2.2.1]heptan-5-yl]-2-phenylimidazo[1,2-b]pyridazine-3-carboxamide], the EC50 in the data set on RSV A2 came to 81 nM. The molecule also yielded a CC50 in the data set “Cell cytotoxicity (CC50)” greater than 25000 nM.

On to `CC(C)Nc1ccc(-c2nn3cccnc3c2C(=O)N[C@H]2N=C(c3ccccc3)c3ccccc3NC2=O)cc1` [Example 13, N-[(3S)-2-Oxo-5-phenyl-1,3-dihydro-1,4-benzodiazepin-3-yl]-2-[4-(propan-2-ylamino)phenyl]pyrazolo[1,5-a]pyrimidine-3-carboxamide], for which the midpoint of the response with RSV A2, the EC50, lay at 94 nM. The molecule also gave a CC50 in “Cell cytotoxicity (CC50)” greater than 25000 nM.

Molecule `Cc1ccc2nc(-c3cncc(C(F)(F)F)c3)c(C(=O)N[C@H]3N=C(c4ccccc4)c4ccccc4NC3=O)n2n1` [Example 46, 6-Methyl-N-[(3S)-2-oxo-5-phenyl-1,3-dihydro-1,4-benzodiazepin-3-yl]-2-[5-(trifluoromethyl)pyridin-3-yl]imidazo[1,2-b]pyridazine-3-carboxamide] came in with an EC50 in the data set on RSV A2 of 94 nM. The CC50 in “Cell cytotoxicity (CC50)” was greater than 25000 nM.

Turning to `[2H]C([2H])([2H])Oc1ccc2nc(-c3ccccc3)c(C(=O)N[C@H]3N=C(c4ccccc4)c4ccccc4NC3=O)n2n1` [Example 112, N-[(3S)-2-oxo-5-phenyl-1,3-dihydro-1,4-benzodiazepin-3-yl]-2-phenyl-6-(trideuteriomethoxy)imidazo[1,2-b]pyridazine-3-carboxamide], in the data set with RSV A2, a half-maximal effect (EC50) was put at 50 nM. The CC50 in “Cell cytotoxicity (CC50)” was greater than 25000 nM.

Turning to `CC(C)Nc1ccc(-c2nn3cccnc3c2C(=O)N[C@H]2N=C(c3ccccc3)c3ccccc3NC2=O)cn1` [Example 73, N-[(3S)-2-oxo-5-phenyl-1,3-dihydro-1,4-benzodiazepin-3-yl]-2-[6-(propan-2-ylamino)pyridin-3-yl]pyrazolo[1,5-a]pyrimidine-3-carboxamide], in the data set on RSV A2, the EC50 amounted to 45 nM. Besides, the CC50 in “Cell cytotoxicity (CC50)” is greater than 25000 nM.

For the molecule `CCOc1ccc2nc(-c3ccc(CC)nc3)c(C(=O)N[C@H]3N=C(c4ccccc4)c4cccc(F)c4NC3=O)n2n1` [Example 122, 6-Ethoxy-2-(6-ethylpyridin-3-yl)-N-[(3S)-9-fluoro-2-oxo-5-phenyl-1,3-dihydro-1,4-benzodiazepin-3-yl]imidazo[1,2-b]pyridazine-3-carboxamide], the EC50 in the data set with RSV A2 is 100 nM. Moreover, the CC50 in “Cell cytotoxicity (CC50)” is greater than 25000 nM.

The molecule `CCc1ccc(-c2nc3ccc(OC)nn3c2C(=O)N[C@H]2N=C(c3ccccc3)c3cccc(F)c3NC2=O)cn1` [Example 121, 2-(6-Ethylpyridin-3-yl)-6-methoxy-N-[(3S)-9-fluoro-2-oxo-5-phenyl-1,3-dihydro-1,4-benzodiazepin-3-yl]imidazo[1,2-b]pyridazine-3-carboxamide] gave an EC50 in the data set with RSV A2 of 42 nM. This molecule displayed a CC50 in the data set “Cell cytotoxicity (CC50)” greater than 25000 nM.

Turning to `O=C(N[C@H]1N=C(c2ccccc2)c2ccccc2NC1=O)c1c(-c2cncc(C3CC3)c2)nn2cccnc12` [Example 31, 2-(5-Cyclopropylpyridin-3-yl)-N-[(3S)-2-oxo-5-phenyl-1,3-dihydro-1,4-benzodiazepin-3-yl]pyrazolo[1,5-a]pyrimidine-3-carboxamide], the EC50 in the data set with RSV A2 stood at 96 nM. Besides, the CC50 in “Cell cytotoxicity (CC50)” was greater than 25000 nM.

In the data set with RSV A2, `CC(C)(O)Cc1ccc(-c2nn3cccnc3c2C(=O)N[C@H]2N=C(c3ccccc3)c3cccc(F)c3NC2=O)cn1` [Example 77, 2-[6-(2-Hydroxy-2-methylpropyl)pyridin-3-yl]-N-[(3S)-9-fluoro-2-oxo-5-phenyl-1,3-dihydro-1,4-benzodiazepin-3-yl]pyrazolo[1,5-a]pyrimidine-3-carboxamide] displayed an EC50 of 104 nM. Further, the CC50 in “Cell cytotoxicity (CC50)” is greater than 25000 nM.

As for `Cc1ccc2nc(-c3cncc(C(F)(F)F)c3)c(C(=O)N[C@H]3N=C(c4ccccc4)c4cccc(F)c4NC3=O)n2n1` [Example 47, N-[(3S)-9-fluoro-2-oxo-5-phenyl-1,3-dihydro-1,4-benzodiazepin-3-yl]-6-methyl-2-[5-(trifluoromethyl)pyridin-3-yl]imidazo[1,2-b]pyridazine-3-carboxamide], in the data set on RSV A2, the EC50 stood at 101 nM. Besides, in the data set “Cell cytotoxicity (CC50)”, the CC50 was greater than 25000 nM.

Take `CCc1ccc(-c2nn3cccnc3c2C(=O)N[C@H]2N=C(c3ccccc3)c3ccccc3NC2=O)c(C)n1` [Example 56]: in the data set on RSV A2, the EC50 was 63 nM. Moreover, the CC50 in “Cell cytotoxicity (CC50)” was greater than 25000 nM.

The molecule `Cn1ccc2cc(-c3nn4cccnc4c3C(=O)N[C@H]3N=C(c4ccccc4)c4cccc(F)c4NC3=O)cnc21` [Example 71, N-[(3S)-9-fluoro-2-oxo-5-phenyl-1,3-dihydro-1,4-benzodiazepin-3-yl]-2-(1-methylpyrrolo[2,3-b]pyridin-5-yl)pyrazolo[1,5-a]pyrimidine-3-carboxamide] registered an EC50 in the data set on RSV A2 of 101 nM. Further, the CC50 in the data set “Cell cytotoxicity (CC50)” was greater than 25000 nM.

Consider `Cc1ccc2nc(-c3ccncc3F)c(C(=O)N[C@H]3N=C(c4ccccc4)c4ccccc4NC3=O)n2n1` [Example 99, 2-(3-Fluoropyridin-4-yl)-6-methyl-N-[(3S)-2-oxo-5-phenyl-1,3-dihydro-1,4-benzodiazepin-3-yl]imidazo[1,2-b]pyridazine-3-carboxamide], for which the EC50 in the data set with RSV A2 was found to be 51 nM. The CC50 in the data set “Cell cytotoxicity (CC50)” was greater than 25000 nM.

As to `Cc1ccc(F)c(-c2nn3cccnc3c2C(=O)N[C@H]2N=C(c3ccccc3)c3ccccc3NC2=O)c1` [Example 25, 2-(2-Fluoro-5-methylphenyl)-N-[(3S)-2-oxo-5-phenyl-1,3-dihydro-1,4-benzodiazepin-3-yl]pyrazolo[1,5-a]pyrimidine-3-carboxamide], the EC50 in the data set on RSV A2 was 116 nM. Moreover, in “Cell cytotoxicity (CC50)”, the midpoint of cytotoxicity, the CC50, lay at 15400 nM.

Molecule `CCc1ccc(-c2nc3ccc(Cl)nn3c2C(=O)N[C@H]2N=C(c3ccccc3)c3cccc(F)c3NC2=O)cn1` [Example 117, 6-Chloro-2-(6-ethylpyridin-3-yl)-N-[(3S)-9-fluoro-2-oxo-5-phenyl-1,3-dihydro-1,4-benzodiazepin-3-yl]imidazo[1,2-b]pyridazine-3-carboxamide] showed an EC50 with RSV A2 of 27 nM. Also, in “Cell cytotoxicity (CC50)”, the CC50 was greater than 25000 nM.
